Six molecules from patent US8691753B2 (priority 2009, dated 2014) can be followed below.

Structures are written as SMILES. Read-outs that look alike come from different tables or passages of the source.

Holding throughout (format): biochemical
For assay [1], the target named is MMP-9h (Homo sapiens (Human), UniProt P14780). In words: Inhibition constant (Ki) on MMP-9h. The settings on record: human MMP-9. From the text:
(§1) The inhibition constant Ki of these compounds has been determined according to the protocol described by Devel et al, 2006, J. Biol. Chem. (7).
(§2) In this table I and also in table II below, “h” corresponds to human. All of the compounds have therefore been evaluated on human MMPs.

Assay [2] deals with MMP-13h (Homo sapiens (Human), UniProt P45452). Description: Inhibition constant (Ki) on MMP-13h. The settings on record: human MMP-13.
Text: as §1, §2

For assay [3], the target named is MMP-10h (Homo sapiens (Human), UniProt P09238). Description: Inhibition constant (Ki) on MMP-10h. The settings on record: human MMP-10.
In assay [4] the target is MMP-12h (Homo sapiens (Human), UniProt P39900). In words: Inhibition constant (Ki) on MMP-12h. Conditions: human MMP-12.
Assay [5] concerns the target MMP-8h (Homo sapiens (Human), UniProt P22894). In words: Inhibition constant (Ki) on MMP-8h. The settings on record: human MMP-8.
Assay [6] addresses MMP-2h (Homo sapiens (Human), UniProt P08253). Description: Inhibition constant (Ki) on MMP-2h. The settings on record: human MMP-2.
Text: as §1, §2

For assay [7], the target named is MMP-3h (Homo sapiens (Human), UniProt P08254). In words: Inhibition constant (Ki) on MMP-3h. The settings on record: human MMP-3.
Text: as §1, §2

In assay [8] the target is MMP-14h (Homo sapiens (Human), UniProt P50281). Description: Inhibition constant (Ki) on MMP-14h. Conditions: human MMP-14.
Text: as §1, §2

As usually defined, the Ki is the dissociation constant of the complex between target and ligand, obtained from inhibition or displacement.

MMP-8h, sequence (P22894 101-467): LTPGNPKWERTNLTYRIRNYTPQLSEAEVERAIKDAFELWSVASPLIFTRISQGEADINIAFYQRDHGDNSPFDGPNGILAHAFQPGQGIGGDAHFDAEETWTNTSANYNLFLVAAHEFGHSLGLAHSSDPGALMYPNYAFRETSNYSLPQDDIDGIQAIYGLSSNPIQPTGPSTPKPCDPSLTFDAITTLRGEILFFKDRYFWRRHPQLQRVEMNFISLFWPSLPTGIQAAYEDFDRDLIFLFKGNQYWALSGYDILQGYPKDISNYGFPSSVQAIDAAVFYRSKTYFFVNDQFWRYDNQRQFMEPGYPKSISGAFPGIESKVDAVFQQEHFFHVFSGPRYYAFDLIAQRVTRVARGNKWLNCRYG
MMP-10h, sequence (P09238 99-476): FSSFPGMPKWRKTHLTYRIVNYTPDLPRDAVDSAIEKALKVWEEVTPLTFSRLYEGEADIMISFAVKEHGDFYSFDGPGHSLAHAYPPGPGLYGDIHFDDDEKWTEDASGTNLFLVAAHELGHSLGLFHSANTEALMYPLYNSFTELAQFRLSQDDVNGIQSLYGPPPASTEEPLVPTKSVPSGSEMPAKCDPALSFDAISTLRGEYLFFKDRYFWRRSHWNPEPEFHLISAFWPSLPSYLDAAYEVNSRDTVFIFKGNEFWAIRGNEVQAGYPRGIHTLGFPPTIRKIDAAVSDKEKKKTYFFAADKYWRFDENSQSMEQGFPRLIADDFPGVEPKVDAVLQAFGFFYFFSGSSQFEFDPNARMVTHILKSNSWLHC
MMP-2h, sequence (P08253 110-660): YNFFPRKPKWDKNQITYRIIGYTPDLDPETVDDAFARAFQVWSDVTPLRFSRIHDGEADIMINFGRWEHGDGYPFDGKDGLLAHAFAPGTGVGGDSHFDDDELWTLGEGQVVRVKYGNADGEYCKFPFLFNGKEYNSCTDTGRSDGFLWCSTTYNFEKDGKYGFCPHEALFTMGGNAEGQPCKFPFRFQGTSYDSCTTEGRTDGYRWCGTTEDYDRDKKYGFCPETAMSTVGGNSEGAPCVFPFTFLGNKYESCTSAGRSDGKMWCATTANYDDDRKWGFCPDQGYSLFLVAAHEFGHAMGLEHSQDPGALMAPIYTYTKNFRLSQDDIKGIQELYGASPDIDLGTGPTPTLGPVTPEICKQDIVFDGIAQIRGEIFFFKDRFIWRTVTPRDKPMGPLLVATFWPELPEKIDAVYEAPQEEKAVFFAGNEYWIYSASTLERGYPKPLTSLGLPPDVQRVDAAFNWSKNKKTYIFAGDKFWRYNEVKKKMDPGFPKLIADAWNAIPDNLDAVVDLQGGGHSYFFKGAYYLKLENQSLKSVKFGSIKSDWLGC
MMP-3h, sequence (P08254 100-477): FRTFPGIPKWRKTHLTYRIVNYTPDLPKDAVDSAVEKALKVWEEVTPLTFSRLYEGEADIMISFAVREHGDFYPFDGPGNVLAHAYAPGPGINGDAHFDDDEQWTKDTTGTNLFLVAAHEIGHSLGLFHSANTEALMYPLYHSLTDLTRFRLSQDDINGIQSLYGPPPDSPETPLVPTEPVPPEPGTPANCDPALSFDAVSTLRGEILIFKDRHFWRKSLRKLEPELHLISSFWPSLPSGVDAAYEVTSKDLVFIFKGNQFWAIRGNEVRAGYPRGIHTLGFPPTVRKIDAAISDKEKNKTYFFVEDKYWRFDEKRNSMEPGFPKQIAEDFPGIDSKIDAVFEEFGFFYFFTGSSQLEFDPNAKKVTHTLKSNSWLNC
MMP-12h, sequence (P39900 106-470): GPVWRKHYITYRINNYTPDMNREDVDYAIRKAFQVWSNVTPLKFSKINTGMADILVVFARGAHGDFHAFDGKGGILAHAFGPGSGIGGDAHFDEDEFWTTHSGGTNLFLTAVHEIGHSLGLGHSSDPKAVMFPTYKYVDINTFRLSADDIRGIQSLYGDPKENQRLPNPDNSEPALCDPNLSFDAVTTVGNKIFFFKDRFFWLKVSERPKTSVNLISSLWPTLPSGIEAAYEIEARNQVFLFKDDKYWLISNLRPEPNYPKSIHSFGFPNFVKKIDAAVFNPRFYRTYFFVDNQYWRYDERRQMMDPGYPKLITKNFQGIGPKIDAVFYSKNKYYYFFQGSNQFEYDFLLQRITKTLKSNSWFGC
MMP-9h, sequence (P14780 94-707): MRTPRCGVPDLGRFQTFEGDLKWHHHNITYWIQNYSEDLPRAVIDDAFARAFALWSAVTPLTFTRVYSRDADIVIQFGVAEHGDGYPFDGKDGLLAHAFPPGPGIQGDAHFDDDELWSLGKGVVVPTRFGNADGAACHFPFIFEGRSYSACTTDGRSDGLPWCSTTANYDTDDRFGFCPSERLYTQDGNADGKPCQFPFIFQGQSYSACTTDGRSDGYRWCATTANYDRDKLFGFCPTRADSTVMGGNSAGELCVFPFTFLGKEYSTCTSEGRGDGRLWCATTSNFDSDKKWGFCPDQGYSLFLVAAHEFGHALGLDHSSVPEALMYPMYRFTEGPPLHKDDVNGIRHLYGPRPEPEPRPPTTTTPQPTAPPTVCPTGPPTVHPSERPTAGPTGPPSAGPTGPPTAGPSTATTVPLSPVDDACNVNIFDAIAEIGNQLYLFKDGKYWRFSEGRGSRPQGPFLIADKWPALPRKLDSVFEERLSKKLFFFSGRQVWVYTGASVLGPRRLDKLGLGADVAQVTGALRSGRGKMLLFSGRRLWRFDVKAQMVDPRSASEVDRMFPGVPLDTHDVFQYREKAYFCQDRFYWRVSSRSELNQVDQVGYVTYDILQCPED

Take `NC(=O)[C@H](CCC(=O)O)NC(=O)[C@H](CCC(=O)O)NC(=O)CCc1cc(-c2ccc(-c3ccccc3)cc2)no1` [Compound 16, (S)-5-amino-4-((S)-2-(3-(3-(biphenyl-4-yl)isoxazol-5-yl)propanamido)-4-carboxybutanamido)-5-oxopentanoic acid]: the Ki in assay [1] was more than 1000 nM; in assay [2], 60 nM; in assay [3] it was 114 nM; in assay [4], 3.4 nM; in assay [5] it was 383 nM; in assay [6], 83 nM. For the same molecule, the inhibition constant Ki in assay [7] is 78 nM; in assay [8] it was more than 1000 nM.

`NC(=O)[C@H](CCC(=O)O)NC(=O)[C@H](CCC(=O)O)NC(=O)CCc1ccc(C#Cc2ccccc2)cc1` [Compound 30, (S)-5-amino-4-((S)-4-carboxy-2-(3-(4-(phenylethynyl)phenyl)propanamido)butanamido)-5-oxopentanoic acid]: the inhibition constant (Ki) in assay [1] (read-out: Ki MMP-9h) was 235 nM; in assay [2] (read-out: Ki MMP-13h) it was 598 nM; in assay [3] (read-out: Ki MMP-10h) it was more than 1000 nM; in assay [4] (read-out: Ki MMP-12h) it was 154 nM; in assay [5] (read-out: Ki MMP-8h), 818 nM; in assay [6] (read-out: Ki MMP-2h) it was more than 1000 nM. Also, the Ki in assay [7] (read-out: Ki MMP-3h) and in assay [8] (read-out: Ki MMP-14h) was more than 1000 nM each time.

Regarding `NC(=O)CC[C@H](NC(=O)[C@H](CCC(=O)O)NC(=O)CCc1cc(-c2ccc(-c3ccccc3)cc2)no1)C(N)=O` [Compound 21, (S)-4-(3-(3-(biphenyl-4-yl)isoxazol-5-yl)propanamido)-5-((S)-1,5-diamino-1,5-dioxopentan-2-ylamino)-5-oxopentanoic acid], the Ki was more than 1000 nM in assay [1] (read-out: Ki MMP-9h); 49 nM in assay [2] (read-out: Ki MMP-13h); 256 nM in assay [3] (read-out: Ki MMP-10h); 5.4 nM in assay [4] (read-out: Ki MMP-12h); 261 nM in assay [5] (read-out: Ki MMP-8h); 39.3 nM in assay [6] (read-out: Ki MMP-2h). The Ki is 105 nM in assay [7] (read-out: Ki MMP-3h) and more than 1000 nM in assay [8] (read-out: Ki MMP-14h).

Take `NC(=O)[C@H](CCC(=O)O)NC(=O)[C@H](Cc1cnc[nH]1)NC(=O)CCc1ccc(-c2cc(-c3ccccc3)cs2)cc1` [Compound 104, (S)-4-((S)-3-(1H-imidazol-5-yl)-2-(3-(4-(4-phenylthiophen-2-yl)phenyl)propanamido)propanamido)-5-amino-5-oxopentanoic acid]: the Ki in assay [1] (read-out: Ki MMP-9h) is more than 5000 nM; in assay [2] (read-out: Ki MMP-13h) it was more than 1000 nM; in assay [3] (read-out: Ki MMP-10h) it was more than 5000 nM; in assay [4] (read-out: Ki MMP-12h), 40 nM; in assay [5] (read-out: Ki MMP-8h), more than 1000 nM; in assay [6] (read-out: Ki MMP-2h), more than 5000 nM. The Ki in assay [7] (read-out: Ki MMP-3h) is more than 10000 nM; in assay [8] (read-out: Ki MMP-14h), more than 5000 nM.

As for `NC(=O)[C@H](Cc1ccc(O)cc1)NC(=O)[C@H](CCC(=O)O)NC(=O)CCc1ccc(-c2cccs2)cc1` [Compound 84, (S)-5-((S)-1-amino-3-(4-hydroxyphenyl)-1-oxopropan-2-ylamino)-5-oxo-4-(3-(4-(thiophen-2-yl)phenyl)propanamido)pentanoic acid], the Ki was 859 nM in assay [1] (read-out: Ki MMP-9h); 584 nM in assay [2] (read-out: Ki MMP-13h); 514 nM in assay [3] (read-out: Ki MMP-10h); 20.9 nM in assay [4] (read-out: Ki MMP-12h); 41 nM in assay [5] (read-out: Ki MMP-8h); 140 nM in assay [6] (read-out: Ki MMP-2h). For the same molecule, the Ki was more than 5000 nM in assay [7] (read-out: Ki MMP-3h) and more than 1000 nM in assay [8] (read-out: Ki MMP-14h).

With `NC(=O)[C@H](CCC(=O)O)NC(=O)[C@H](Cc1ccc(O)cc1)NC(=O)CCc1ccc(-c2ccc(-c3ccccc3)cc2)cc1` [Compound 75, (S)-5-amino-4-((S)-3-(4-hydroxyphenyl)-2-(3-(4′-phenylbiphenyl-4-yl)propanamido)propanamido)-5-oxopentanoic acid], the Ki was more than 10000 nM in assay [1] (read-out: Ki MMP-9h); 232 nM in assay [2] (read-out: Ki MMP-13h); more than 1000 nM in assay [3] (read-out: Ki MMP-10h); 122 nM in assay [4] (read-out: Ki MMP-12h); more than 5000 nM in assay [5] (read-out: Ki MMP-8h); more than 1000 nM in assay [6] (read-out: Ki MMP-2h). The values for the Ki in assay [7] (read-out: Ki MMP-3h) and in assay [8] (read-out: Ki MMP-14h) were 252 nM and more than 10000 nM, respectively.
